Common to all, as to test: NCI-60 cell line screen, 48 h
In test [1] the test system is HCT-116 colon.
For test [2], the system named is HCT-15 colon.
Test [3] has as its system KM12 colon.
Test [4] has as its system MOLT-4 leukemia.
In test [5] the test system is OVCAR-5 ovarian.
Test [6] concerns RPMI-8226 leukemia.
The test system of test [7] is SNB-75 CNS.
For test [8], the system named is UACC-257 melanoma.
The test system of test [9] is UO-31 renal.

Results on twelve molecules are retold here after PubChem BioAssay (NCI).

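Values below derive from 48-hour exposures of cells grown in 96-well plates, with endpoints linearly interpolated between the two concentrations bracketing the appropriate inhibition level. GI50 = concentration required for 50% inhibition of growth. Definition used: TGI = concentration required for complete inhibition of growth.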

Consider `COc1ccc2[nH]c(-c3ccc(O)cc3)cc(=O)c2c1`, for which the TGI in [1] is 10.4 µM; in [2], 7.03 µM; in test [3] it was 7.09 µM; in test [4], 79.4 µM; in test [5] it was over 82.8 µM; in test [6], 65.2 µM. For the same molecule, the TGI in test [7] is 1.7 µM; in test [8], over 81.2 µM; in test [9], 98.2 µM.

Turning to `CC(C)(C)NCC(COc1ccc([N+](=O)[O-])cc1)OP(c1ccccc1)c1ccccc1` (configuration not stated), the TGI in [1] was over 100 µM; in [2], over 100 µM; in test [3], over 100 µM; in [4] it was 49.6 µM; in test [5] it was over 100 µM; in test [6], 35.3 µM. In addition, the TGI in [7], in [8] and in [9] was over 100 µM throughout.

For `O=C1c2ccccc2-c2c1c1ccccc1c(=O)n2CCNCCn1c2c(c3ccccc3c1=O)C(=O)c1ccccc1-2`, the GI50 is over 25 µM in test [1]; over 25 µM in test [2]; over 25 µM in test [3]; 4.84 µM in test [4]; over 25 µM in [5]; over 25 µM in test [8]. Also, in test [9], the GI50 was over 25 µM. Besides, the TGI in [1] is over 25 µM; in [2] it was over 25 µM; in [3], over 25 µM; in test [4], 12.8 µM; in test [5], over 25 µM; in [8], over 25 µM. For the same molecule, in test [9], the TGI is over 25 µM.

For `Cc1cc(C)n(C2=NS(=O)(=O)c3ccccc3N2C)n1`, the TGI in test [1], in test [2], in [3], in test [4], in test [5] and in [8] was over 100 µM throughout. The TGI in test [9] was over 100 µM.

For `CC1=NN(C(=O)c2ccncc2)C(=O)C1N=Nc1ccc(F)cc1` (configuration not stated), the TGI in test [1] was over 100 µM; in [2], over 100 µM; in test [5], over 100 µM; in test [6] it was over 100 µM; in test [7], 66.8 µM; in test [8], over 100 µM. The same molecule gave a TGI in test [9] of over 100 µM.

Consider `N.N.N.N.N.O=S(=O)([O-])S(=O)(=O)[O-].[Co+3]`, for which the GI50 in [1], in test [2], in test [3], in test [4], in test [5] and in [6] was over 100 µM in each case. The GI50 in [7] was 62.8 µM; in [8] it was over 100 µM; in [9], over 100 µM. Besides, the TGI in [1], in [2], in [3], in [4], in test [5] and in [6] was over 100 µM throughout. Further, the TGI in test [7], in test [8] and in test [9] was over 100 µM each time.

`O=[N+]([O-])c1ccc(-c2cc3c(Nc4ccc(Cl)c(C(F)(F)F)c4)ncnc3s2)cc1`: the GI50 in [1] is 1.51 µM; in test [2], 1.01 µM; in test [3], 1.42 µM; in test [5], 1.35 µM; in test [6] it was 0.555 µM; in test [7], 1.87 µM. Besides, the GI50 in test [8] was 2.95 µM; in test [9] it was 1.13 µM. Besides, the TGI in [1] was over 100 µM; in test [2], over 100 µM; in test [3], over 100 µM; in test [5] it was over 100 µM; in test [6] it was 2.81 µM; in test [7], 9.02 µM. The TGI is over 26.8 µM in test [8] and over 26.7 µM in test [9].

On to `O=C(CC1(O)C(=O)Nc2c(Cl)ccc(Cl)c21)c1ccc(Cl)cc1Cl` (configuration not stated), for which the TGI was 33.1 µM in test [1]; over 100 µM in test [2]; 30.9 µM in test [3]; 35.6 µM in test [5]; 43.7 µM in test [6]; 46.9 µM in test [7]. Further, the TGI in test [8] worked out at 25.1 µM; in test [9], 37.1 µM.

Regarding `O=C1/C(=C/c2ccc([N+](=O)[O-])cc2)COc2ccc(O)cc21`, the GI50 in test [1] was 1.67 µM; in test [2] it was 2.24 µM; in test [3], 2.15 µM; in test [4], 3.11 µM; in test [5], 5.97 µM; in [6] it was 0.326 µM. For the same molecule, the GI50 was over 100 µM in test [7], 32.1 µM in test [8] and 1.45 µM in [9]. Also, the TGI in test [1] stood at 3.43 µM; in test [2] it was 7.61 µM; in test [3], 5.25 µM; in [4], 37.6 µM; in [5] it was 33.2 µM; in test [6], 1.65 µM. Further, the TGI in test [7] was over 100 µM; in test [8], over 100 µM; in test [9], 3.6 µM.

`C=C1C(=O)C23C(O)C1CC[C@H]2C12CCCC(C)(COC(C)=O)[C@H]1[C@H](O)[C@]3(O)OC2` (some centres not stated): the TGI in test [1] is 2.3 µM; in test [2] it was 2.37 µM; in test [3], 6.07 µM; in test [4], 0.72 µM; in [5] it was 5.18 µM; in test [6], 1.76 µM. For the same molecule, the TGI in [7] worked out at 4.33 µM; in test [8], 3.67 µM; in test [9], 3.35 µM.

Consider `Cn1c(=O)nc2n(-c3ccc(Cl)c(C(F)(F)F)c3)c3ccccc3nc-2c1=O`, for which the TGI in [1] is over 79.4 µM; in test [2], over 100 µM; in test [3], over 100 µM; in test [4] it was over 100 µM; in test [5], over 100 µM; in test [6], over 100 µM. Further, the figures for the TGI in test [7], in test [8] and in [9] were over 100 µM, 36.8 µM and over 100 µM, respectively.

Take `Cc1nc(-c2cccnc2)sc1C(=O)/C=C/c1cccc([N+](=O)[O-])c1`: the TGI in test [2], in test [3], in test [4], in test [5], in [6] and in test [7] was over 100 µM throughout. For the same molecule, the TGI in test [8] and in test [9] was over 100 µM each time.
